Source: patent US8969386B2, “Modulators of CFTR” (Vertex Pharmaceuticals Incorporated, priority 2007, dated 2015)
pEC50: −log10 of the molar value.

Target: T1, ΔF508-CFTR (Homo sapiens, UniProt P13569, DEL508-508)
T1 construct: expressed in transfected cells
Assay: ΔF508-CFTR correction, membrane potential optical (FRET/VIPR) assay
Type: cell-based
Conditions: NIH3T3 mouse fibroblasts stably expressing ΔF508-CFTR; for Emax: read-out: % Efficacy
Source text: Assays for Detecting and Measuring ΔF508-CFTR Correction Properties of Compounds
Membrane potential optical methods for assaying ΔF508-CFTR modulation properties of compounds
The optical membrane potential assay utilized voltage-sensitive FRET sensors described by Gonzalez and Tsien (See Gonzalez, J. E. and R. Y. Tsien (1995) “Voltage sensing by fluorescence resonance energy transfer in single cells” Biophys J 69(4): 1272-80, and Gonzalez, J. E. and R. Y. Tsien (1997) “Improved indicators of cell membrane potential that use fluorescence resonance energy transfer” Chem Biol 4(4): 269-77) in combination with instrumentation for measuring fluorescence changes such as the Voltage/Ion Probe Reader (VIPR) (See Gonzalez, J. E., K. Oades, et al. (1999) “Cell-based assays and instrumentation for screening ion-channel targets” Drug Discov Today 4(9): 431-439).
These voltage sensitive assays are based on the change in fluorescence resonant energy transfer (FRET) between the membrane-soluble, voltage-sensitive dye, DiSBAC2(3), and a fluorescent phospholipid, CC2-DMPE, which is attached to the outer leaflet of the plasma membrane and acts as a FRET donor. Changes in membrane potential (Vm) cause the negatively charged DiSBAC2(3) to redistribute across the plasma membrane and the amount of energy transfer from CC2-DMPE changes accordingly. The changes in fluorescence emission were monitored using VIPR™ II, which is an integrated liquid handler and fluorescent detector designed to conduct cell-based screens in 96- or 384-well microtiter plates.
1. Identification of Correction Compounds
To identify small molecules that correct the trafficking defect associated with ΔF508-CFTR; a single-addition HTS assay format was developed. The cells were incubated in serum-free medium for 16 hrs at 37° C. in the presence or absence (negative control) of test compound. As a positive control, cells plated in 384-well plates were incubated for 16 hrs at 27° C. to “temperature-correct” ΔF508-CFTR. The cells were subsequently rinsed 3× with Krebs Ringers solution and loaded with the voltage-sensitive dyes. To activate ΔF508-CFTR, 10 μM forskolin and the CFTR potentiator, genistein (20 μM), were added along with Cl^−-free medium to each well. The addition of Cl^−-free medium promoted Cl^− efflux in response to ΔF508-CFTR activation and the resulting membrane depolarization was optically monitored using the FRET-based voltage-sensor dyes.
NIH3T3 mouse fibroblasts stably expressing ΔF508-CFTR are used for optical measurements of membrane potential. The cells are maintained at 37° C. in 5% CO2 and 90% humidity in Dulbecco's modified Eagle's medium supplemented with 2 mM glutamine, 10% fetal bovine serum, 1×NEAA, β-ME, 1× pen/strep, and 25 mM HEPES in 175 cm^2 culture flasks. For all optical assays, the cells were seeded at 30,000/well in 384-well matrigel-coated plates and cultured for 2 hrs at 37° C. before culturing at 27° C. for 24 hrs for the potentiator assay. For the correction assays, the cells are cultured at 27° C. or 37° C. with and without compounds for 16-24 hours Electrophysiological Assays for assaying ΔF508-CFTR modulation properties of compounds

T1 sequence (P13569 with tags, fused parts or gaps DEL508-508): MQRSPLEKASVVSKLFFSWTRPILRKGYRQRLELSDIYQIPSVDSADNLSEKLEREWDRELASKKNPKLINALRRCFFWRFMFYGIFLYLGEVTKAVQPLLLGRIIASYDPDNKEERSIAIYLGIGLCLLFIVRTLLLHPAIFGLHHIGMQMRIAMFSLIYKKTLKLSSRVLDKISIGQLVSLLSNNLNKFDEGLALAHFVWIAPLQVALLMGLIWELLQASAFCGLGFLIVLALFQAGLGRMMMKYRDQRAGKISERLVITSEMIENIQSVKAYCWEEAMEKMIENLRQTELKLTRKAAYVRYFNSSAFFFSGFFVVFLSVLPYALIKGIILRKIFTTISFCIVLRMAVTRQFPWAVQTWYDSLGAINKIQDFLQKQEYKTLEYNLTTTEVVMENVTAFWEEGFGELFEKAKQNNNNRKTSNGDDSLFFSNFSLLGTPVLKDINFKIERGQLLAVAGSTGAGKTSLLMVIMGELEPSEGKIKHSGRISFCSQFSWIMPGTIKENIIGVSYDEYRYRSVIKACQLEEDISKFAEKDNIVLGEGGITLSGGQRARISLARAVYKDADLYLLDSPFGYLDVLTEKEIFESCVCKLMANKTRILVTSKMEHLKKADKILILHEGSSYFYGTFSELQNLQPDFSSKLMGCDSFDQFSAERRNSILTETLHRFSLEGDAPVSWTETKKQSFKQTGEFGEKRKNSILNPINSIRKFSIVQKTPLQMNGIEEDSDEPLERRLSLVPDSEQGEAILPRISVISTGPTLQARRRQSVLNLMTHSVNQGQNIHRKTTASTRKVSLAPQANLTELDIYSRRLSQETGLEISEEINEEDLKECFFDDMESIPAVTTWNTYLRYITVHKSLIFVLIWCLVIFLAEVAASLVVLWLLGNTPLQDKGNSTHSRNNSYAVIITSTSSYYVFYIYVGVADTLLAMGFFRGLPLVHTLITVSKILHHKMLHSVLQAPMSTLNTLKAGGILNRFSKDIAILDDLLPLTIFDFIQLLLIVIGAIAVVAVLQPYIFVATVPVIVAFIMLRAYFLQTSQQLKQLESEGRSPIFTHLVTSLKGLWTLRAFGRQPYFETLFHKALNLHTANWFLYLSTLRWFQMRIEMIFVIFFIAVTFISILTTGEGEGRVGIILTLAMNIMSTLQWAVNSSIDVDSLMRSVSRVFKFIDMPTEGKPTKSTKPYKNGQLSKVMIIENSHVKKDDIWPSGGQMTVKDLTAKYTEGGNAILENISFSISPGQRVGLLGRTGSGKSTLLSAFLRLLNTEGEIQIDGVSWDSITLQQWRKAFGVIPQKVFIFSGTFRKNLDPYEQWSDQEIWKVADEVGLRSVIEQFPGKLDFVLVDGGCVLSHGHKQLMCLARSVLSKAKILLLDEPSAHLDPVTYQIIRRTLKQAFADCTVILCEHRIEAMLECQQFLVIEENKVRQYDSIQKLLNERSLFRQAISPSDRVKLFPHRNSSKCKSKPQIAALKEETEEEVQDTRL

SMILES	pEC50	Emax
COc1ncccc1-c1cc(C)cc(NC(=O)C2(c3ccc4c(c3)OC(F)(F)O4)CC2)n1 [Compound 48]	> 5.70	> 100%
Cc1cc(NC(=O)C2(c3ccc4c(c3)OC(F)(F)O4)CC2)nc(-c2ccn(CCO)c(=O)c2)c1 [Compound 64]	> 5.70	> 100%
Cc1cc(=O)[nH]cc1-c1nc(NC(=O)C2(c3ccc4c(c3)OC(F)(F)O4)CC2)ccc1C [Compound 14]	> 5.70	50 to 100%
Cc1cc(NC(=O)C2(c3ccc4c(c3)OC(F)(F)O4)CC2)nc(-c2cc[nH]c(=O)c2)c1 [Compound 19]	> 5.70	> 100%
Cc1cc(NC(=O)C2(c3ccc4c(c3)OC(F)(F)O4)CC2)nc(-c2ccc(=O)[nH]c2C)c1C [Compound 108]	> 5.70	> 100%
Cc1cc(NC(=O)C2(c3ccc4c(c3)OC(F)(F)O4)CC2)nc(-c2ccc(=O)[nH]c2C)c1 [Compound 117]	> 5.70	> 100%
Cc1ccc(NC(=O)C2(c3ccc(Cl)cc3)CC2)nc1-c1c[nH]c(=O)c(C)c1 [Compound 61]	> 5.70	50 to 100%
Cc1ccc(NC(=O)C2(c3ccc4c(c3)OC(F)(F)O4)CC2)nc1-c1ccc(=O)n(C)c1 [Compound 52]	> 5.70	50 to 100%
Cc1ccc(NC(=O)C2(c3ccc4c(c3)OC(F)(F)O4)CC2)nc1-c1ccc(=O)[nH]c1C [Compound 40]	> 5.70	> 100%
COc1ccc(C2(C(=O)Nc3ccc(C)c(-c4ccc(OC)nc4)n3)CC2)cc1 [Compound 2]	> 5.70	50 to 100%
Cc1cc(NC(=O)C2(c3ccc4c(c3)OC(F)(F)O4)CC2)nc(-c2cc(C)c[nH]c2=O)c1 [Compound 92]	> 5.70	50 to 100%
Cc1ccc(NC(=O)C2(c3ccc4c(c3)OC(F)(F)O4)CC2)nc1-c1ccc(=O)n(CC(=O)O)c1 [Compound 13]	< 5.30	50 to 100%
COc1ccc(-c2nc(NC(=O)C3(c4ccc5c(c4)OC(F)(F)O5)CC3)cc(C)c2C)c(C)n1 [Compound 103]	> 5.70	> 100%
Cc1cc(-c2nc(NC(=O)C3(c4ccc5c(c4)OC(F)(F)O5)CC3)ccc2C)cc(=O)[nH]1 [Compound 106]	> 5.70	> 100%
COc1cc(-c2nc(NC(=O)C3(c4ccc5c(c4)OC(F)(F)O5)CC3)ccc2C)cc(C)n1 [Compound 105]	> 5.70	50 to 100%
COc1ccc(C2(C(=O)Nc3ccc(C)c(-c4cccnc4OC)n3)CC2)cc1 [Compound 7]	> 5.70	50 to 100%

SMILES	pEC50	Emax
COc1ncccc1-c1nc(NC(=O)C2(c3ccc4c(c3)OC(F)(F)O4)CC2)ccc1C [Compound 15]	> 5.70	> 100%
COc1ccc(C2(C(=O)Nc3ccc(C)c(-c4ccnc(OC)c4)n3)CC2)cc1 [Compound 45]	> 5.70	> 100%
COC(=O)Cn1ccc(-c2nc(NC(=O)C3(c4ccc5c(c4)OC(F)(F)O5)CC3)ccc2C)cc1=O [Compound 16]	> 5.70	50 to 100%
Cc1cc(NC(=O)C2(c3ccc4c(c3)OCC4)CC2)nc(-c2ccc(=O)[nH]c2)c1 [Compound 98]	> 5.70	50 to 100%
COc1ccc(-c2nc(NC(=O)C3(c4ccc5c(c4)OC(F)(F)O5)CC3)cc(C)c2C)cn1 [Compound 57]	> 5.70	> 100%
COc1ncccc1-c1nc(NC(=O)C2(c3ccc4c(c3)CCO4)CC2)cc(C)c1C [Compound 100]	> 5.70	> 100%
Cc1ccc(NC(=O)C2(c3ccc4c(c3)COC4)CC2)nc1-c1c[nH]c(=O)c(C)c1 [Compound 59]	5.30 to 5.70	50 to 100%
Cc1cc(-c2nc(NC(=O)C3(c4ccc5c(c4)OC(F)(F)O5)CC3)ccc2C)c(=O)n(CCO)c1 [Compound 116]	> 5.70	> 100%
COc1ncccc1-c1nc(NC(=O)C2(c3ccc4c(c3)OC(F)(F)O4)CC2)cc(C)c1C [Compound 56]	> 5.70	> 100%
Cc1ccc(NC(=O)C2(c3ccc4c(c3)OC(F)(F)O4)CC2)nc1-c1ccc(=O)n(C[C@@H](O)CO)c1 [Compound 79]	> 5.70	> 100%
COc1ncc(C)cc1-c1cc(C)cc(NC(=O)C2(c3ccc4c(c3)OC(F)(F)O4)CC2)n1 [Compound 87]	> 5.70	> 100%
Cc1cc(NC(=O)C2(c3ccc4c(c3)OC(F)(F)O4)CC2)nc(-c2ccc(=O)[nH]c2)c1C [Compound 65]	> 5.70	50 to 100%
COc1ncccc1-c1cccc(NC(=O)C2(c3ccc4c(c3)OCO4)CC2)n1 [Compound 93]	> 5.70	> 100%
COc1cc(-c2nc(NC(=O)C3(c4ccc5c(c4)OC(F)(F)O5)CC3)ccc2C)c[nH]c1=O [Compound 21]	> 5.70	50 to 100%
Cc1ccc(NC(=O)C2(c3ccc4c(c3)CCO4)CC2)nc1-c1ccc(=O)[nH]c1 [Compound 78]	> 5.70	50 to 100%

The next lines start with the values.

pEC50	Emax	SMILES
> 5.70	50 to 100%	Cc1cc(NC(=O)C2(c3ccc4c(c3)CCO4)CC2)nc(-c2cc[nH]c(=O)c2)c1C [Compound 109]
> 5.70	> 100%	COc1cc(-c2nc(NC(=O)C3(c4ccc5c(c4)OC(F)(F)O5)CC3)cc(C)c2C)ccn1 [Compound 58]
> 5.70	> 100%	Cc1ccc(NC(=O)C2(c3ccc4c(c3)OC(F)(F)O4)CC2)nc1-c1ccn(CCO)c(=O)c1 [Compound 29]
> 5.70	> 100%	CCOC(=O)NCCn1cc(-c2nc(NC(=O)C3(c4ccc5c(c4)OC(F)(F)O5)CC3)ccc2C)ccc1=O [Compound 81]
> 5.70	> 100%	Cc1cc(NC(=O)C2(c3ccc4c(c3)OC(F)(F)O4)CC2)nc(-c2ccc[nH]c2=O)c1C [Compound 66]
> 5.70	> 100%	Cc1ccc(NC(=O)C2(c3ccc4c(c3)OC(F)(F)O4)CC2)nc1-c1c[nH]c(=O)c(N)c1 [Compound 77]
> 5.70	50 to 100%	COc1cccc(C2(C(=O)Nc3ccc(C)c(-c4c[nH]c(=O)c(C)c4)n3)CC2)c1 [Compound 63]
> 5.70	50 to 100%	Cc1ccc(NC(=O)C2(c3ccc4c(c3)OC(F)(F)O4)CC2)nc1-c1ccc(=O)[nH]c1O [Compound 28]
5.30 to 5.70	50 to 100%	Cc1ccc(NC(=O)C2(c3ccc4c(c3)OC(F)(F)O4)CC2)nc1-c1c[nH]c(=O)c(C(=O)O)c1 [Compound 23]
> 5.70	50 to 100%	Cc1c[nH]c(=O)c(-c2nc(NC(=O)C3(c4ccc5c(c4)OC(F)(F)O5)CC3)ccc2C)c1 [Compound 31]
> 5.70	50 to 100%	COc1ccc(C2(C(=O)Nc3ccc(C)c(-c4c[nH]c(=O)c(C)c4)n3)CC2)cc1Cl [Compound 62]
> 5.70	> 100%	Cc1c[nH]c(=O)c(-c2nc(NC(=O)C3(c4ccc5c(c4)OC(F)(F)O5)CC3)cc(C)c2C)c1 [Compound 91]
> 5.70	> 100%	COc1ccc(-c2nc(NC(=O)C3(c4ccc5c(c4)OC(F)(F)O5)CC3)ccc2C)c(C)n1 [Compound 36]
> 5.70	> 100%	Cc1cc(=O)[nH]cc1-c1nc(NC(=O)C2(c3ccc4c(c3)OC(F)(F)O4)CC2)cc(C)c1C [Compound 90]
> 5.70	50 to 100%	Cc1c[nH]c(=O)c(-c2nc(NC(=O)C3(c4ccc5c(c4)CCO5)CC3)ccc2C)c1 [Compound 83]
5.30 to 5.70	50 to 100%	Cc1ccc(NC(=O)C2(c3ccc4c(c3)OC(F)(F)O4)CC2)nc1-c1c[nH]c(=O)c(C(N)=O)c1 [Compound 34]
> 5.70	50 to 100%	COc1ncc(-c2nc(NC(=O)C3(c4ccc5c(c4)OC(F)(F)O5)CC3)ccc2C)cc1C(=O)N(C)C [Compound 73]
> 5.70	> 100%	Cc1ccc(NC(=O)C2(c3ccc4c(c3)OC(F)(F)O4)CC2)nc1-c1c[nH]c(=O)c(Cl)c1 [Compound 25]
